One series deals with LSD1 (Homo sapiens (Human), UniProt O60341). In words: LSD1 enzyme activity detection (HTRF). The settings on record: HTRF, H3K4me1 substrate; read-out: Inhibition of enzymatic activity of LSD1 IC50. It is filed as biochemical. Background: In TR-FRET formats the signal depends on donor and acceptor labels being close together.
Another series deals with NCI-H1417 cells. Put plainly: In vitro cell proliferation detection (CellTiter-Glo, 7 days). The settings on record: Homo sapiens. The format is cell-based. On the technique in general: ATP-based viability assays read luminescence as a measure of living cells.
The nature of the next series: Caco-2 permeability test. The settings on record: human, Caco-2. Background: Caco-2 monolayers are a common model of the intestinal barrier.
For series [1], the target named is voltage-gated potassium ion channel hERG (Homo sapiens (Human), UniProt Q12809). In words: hERG inhibition test (manual patch-clamp). The settings on record: read-out: hERG IC50; manual patch-clamp.
A further series addresses CYP3A4 (Homo sapiens (Human), UniProt P08684). Put plainly: CYP 450 enzyme inhibition test (mixed human liver microsomes, LC-MS/MS). The settings on record: read-out: CYP3A4-T IC50; mixed human liver microsomes, NADPH, CYP3A4-T probe substrate.
The next series in a line: Rat PK test (IV and PO). The settings on record: for Cl / F: Male SD rats; for F: PO vs IV; for AUC(0-inf) / Cmax / half-life / Vd: male, SD, rat, plasma; for Vd: intravenous.
[2] abbreviates: 168 h, NCI-H1417 cells, 7 days, CellTiter-Glo, read-out: NCI-H1417 proliferation inhibition IC50.

Structures can show the parent of a compound that is named as a salt. Where two headings read alike, the source gives them in different places.

The Papp A→B is how fast a substance crosses the layer from the apical side. A higher Papp A→B goes with ready permeation. What is called Papp B→A is the apparent permeability from the basolateral to the apical side of a cell layer. By efflux ratio is commonly meant a quotient of directional permeabilities that is used to spot active efflux. In general, AUC(0-inf) refers to the area under the concentration-time curve extrapolated to infinity. One may read the Cmax as the highest concentration seen after dosing. Usually half-life stands for the time in which the quantity being followed falls by half. Lower therefore signals fast loss.

CYP3A4, sequence (P08684 whole entry): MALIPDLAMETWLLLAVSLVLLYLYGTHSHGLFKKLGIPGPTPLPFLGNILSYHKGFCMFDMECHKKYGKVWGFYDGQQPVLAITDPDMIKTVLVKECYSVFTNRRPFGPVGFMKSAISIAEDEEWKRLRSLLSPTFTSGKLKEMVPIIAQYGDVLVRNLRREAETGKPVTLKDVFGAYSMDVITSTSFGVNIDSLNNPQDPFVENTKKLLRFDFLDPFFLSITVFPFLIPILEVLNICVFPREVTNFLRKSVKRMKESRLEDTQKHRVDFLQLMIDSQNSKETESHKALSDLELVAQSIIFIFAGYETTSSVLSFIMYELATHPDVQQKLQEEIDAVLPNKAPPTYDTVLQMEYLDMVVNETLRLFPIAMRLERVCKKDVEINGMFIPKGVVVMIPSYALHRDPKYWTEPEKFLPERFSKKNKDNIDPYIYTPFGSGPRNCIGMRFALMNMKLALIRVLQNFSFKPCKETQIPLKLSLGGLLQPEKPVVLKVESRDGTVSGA
voltage-gated potassium ion channel hERG, sequence (Q12809 whole entry): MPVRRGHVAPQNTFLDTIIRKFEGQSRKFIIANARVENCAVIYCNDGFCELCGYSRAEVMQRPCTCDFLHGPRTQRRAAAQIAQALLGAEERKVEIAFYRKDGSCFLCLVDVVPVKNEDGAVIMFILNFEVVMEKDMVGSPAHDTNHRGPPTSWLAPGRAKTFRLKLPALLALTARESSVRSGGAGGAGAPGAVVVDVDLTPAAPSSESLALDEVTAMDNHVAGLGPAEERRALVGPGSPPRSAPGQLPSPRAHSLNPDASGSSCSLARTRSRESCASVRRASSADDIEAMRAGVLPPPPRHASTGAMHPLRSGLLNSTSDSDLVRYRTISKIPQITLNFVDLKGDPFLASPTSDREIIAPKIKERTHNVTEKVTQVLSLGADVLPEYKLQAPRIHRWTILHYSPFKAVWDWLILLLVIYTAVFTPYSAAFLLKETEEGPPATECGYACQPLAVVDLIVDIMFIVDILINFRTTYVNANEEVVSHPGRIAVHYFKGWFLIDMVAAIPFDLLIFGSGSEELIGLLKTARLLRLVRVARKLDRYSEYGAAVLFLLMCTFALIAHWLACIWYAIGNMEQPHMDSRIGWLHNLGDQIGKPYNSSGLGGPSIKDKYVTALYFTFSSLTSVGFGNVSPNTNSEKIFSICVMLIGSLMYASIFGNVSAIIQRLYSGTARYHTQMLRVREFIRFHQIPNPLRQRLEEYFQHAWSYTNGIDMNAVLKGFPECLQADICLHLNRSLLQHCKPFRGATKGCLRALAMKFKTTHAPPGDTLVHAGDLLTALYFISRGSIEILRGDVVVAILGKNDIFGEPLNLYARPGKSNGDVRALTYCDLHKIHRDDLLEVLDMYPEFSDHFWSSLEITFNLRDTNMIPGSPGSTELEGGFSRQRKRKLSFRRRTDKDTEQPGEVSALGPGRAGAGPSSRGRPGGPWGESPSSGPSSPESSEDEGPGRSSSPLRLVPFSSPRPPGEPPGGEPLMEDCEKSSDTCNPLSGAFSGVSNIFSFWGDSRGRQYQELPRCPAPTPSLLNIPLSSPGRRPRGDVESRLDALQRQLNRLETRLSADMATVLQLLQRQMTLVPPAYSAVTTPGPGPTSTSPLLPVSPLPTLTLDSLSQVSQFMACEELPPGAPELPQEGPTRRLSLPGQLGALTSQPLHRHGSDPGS

For the molecule `Cc1ccc(-c2nc(CN[C@@H]3C[C@H]3c3ccc(F)cc3)cc(C(=O)NC3CCOCC3)n2)cc1O` [Example 236], the results for the IC50 (at LSD1; in the series on NCI-H1417 cells (setting [2]); in series [1]) were 21.7 nM, 2.82 nM and 5400 nM, respectively. The same molecule showed a Papp A→B at 120 min in the series “Caco-2 permeability test” of 1.44 ×10⁻⁶ cm/s. The molecule further displayed a Papp B→A at 120 min in the series “Caco-2 permeability test” of 3.99 ×10⁻⁶ cm/s. For the same molecule, the efflux ratio at 120 min in the series “Caco-2 permeability test” is 2.76.
With `COc1ccc(-c2c(-c3ccc(C#N)c(F)c3)nc(N3CC4CC3CC4N)n3ccnc23)cc1F` (centres unmarked) [Example 169, 4-(5-(5-amino-2-azabicyclo[2.2.1]heptane-2-yl)-8-(3-fluoro-4-methoxyphenyl)imidazolo[1,2-c]pyrimidin-7-yl)-2-fluorobenzonitrile hydrochloride], the IC50 is 4.3 ± 0.9 nM on LSD1, 4 nM with NCI-H1417 cells (setting [2]) and > 10000 nM on CYP3A4.
For `COc1ccc(-c2cnc(N3CC4CC3CC4N)c(C#N)c2-c2ccc(C#N)c(F)c2)cc1O` (centres unmarked) [Example 73, 2-(5-amino-2-azabicyclo [2.2.1]heptane-2-yl)-4-(4-cyano-3-fluorophenyl)-5-(3-hydroxy-4-methoxyphenyl) nicotinitrile], the IC50 is 1.9 ± 0.4 nM at LSD1, 1.61 nM with NCI-H1417 cells (setting [2]) and 7590 nM on CYP3A4.
For the molecule `Cc1noc2cc(-c3cnc(N4CCC(N)CC4)c(C#N)c3-c3ccc(C#N)c(F)c3)c(F)cc12` [Example 71, 2-(4-aminopiperidin-1-yl)-4-(4-cyano-3-fluorophenyl)-5-(5-fluoro-3-methylbenzo[d]isoxazol-6-yl)nicotinonitrile], the figures for the IC50 on LSD1, in the series on NCI-H1417 cells (setting [2]) and at CYP3A4 were 0.3 ± 0.2 nM, 0.338 nM and 4300 nM, respectively.
The matching figures for `CC1CN(C(=O)c2cc(CN[C@@H]3C[C@H]3c3ccc(F)cc3)nc(-c3ccc(C#N)cc3)n2)CC(C)N1` (stereo partly drawn) [Example 239, 4-(4-(3,5-dimethyl-piperazine-1-carbonyl)-6-((((1R,2S)-2-(4-fluoro-phenyl)cyclopropyl)amino)methyl)pyrimidin-2-yl) benzonitrile]: 4.8 ± 1.8 nM, 0.986 nM and > 10000 nM.
Take `CS(=O)(=O)N1CCN(C(=O)c2cc(CN[C@@H]3C[C@H]3c3ccc(F)cc3)nc(-c3ccc(-n4cccn4)cc3)n2)CC1` [Example 2, (2-(4-(1H-pyrazol-1-yl)phenyl)-6-((((1R,2S)-2-(4-fluorophenyl)cyclopropyl)amino)methyl)pyrimidin-4-yl)(4-(methylsulfonyl)piperazin-1-yl)methanone]: the IC50 worked out at 17.9 ± 3.2 nM at LSD1, 0.73 nM in the series with NCI-H1417 cells (setting [2]) and 2580 nM in series [1]. This molecule also displayed a Papp A→B at 120 min in the series “Caco-2 permeability test” of 15 ×10⁻⁶ cm/s. The same molecule yielded a Papp B→A at 120 min in the series “Caco-2 permeability test” of 15 ×10⁻⁶ cm/s. For the same molecule, the efflux ratio at 120 min in “Caco-2 permeability test” was 1.
For `COc1ccc(-c2c(C#N)cc(N3CCC(N)CC3)nc2-c2ccc(C#N)c(F)c2)cc1O` [Example 273, 6-(4-aminopiperidin-1-yl)-2-(4-cyano-3-fluorophenyl)-3-(3-hydroxy-4-methoxyphenyl)pyridine-4-carbonitrile], the IC50 on LSD1 was 0.2 ± 0.05 nM; in the series with NCI-H1417 cells (setting [2]), 1.19 nM; on CYP3A4 it was > 10000 nM.
For the molecule `COc1ccc(-c2nc(CN[C@@H]3C[C@H]3c3ccc(F)cc3)cc(C(=O)N3CCN(S(C)(=O)=O)CC3)n2)cc1O` [Example 224], the IC50 at LSD1 came to 25.7 nM; in the series on NCI-H1417 cells (setting [2]) it was 11.6 nM; in series [1], 5600 nM; at CYP3A4, 5540 nM.
The matching figures for `COc1ccc(-c2cnc(N3CCC(C)(N)CC3)c(C#N)c2-c2ccc(C#N)c(F)c2)cc1O` [Example 80, 2-(4-amino-4-methylpiperidin-1-yl)-4-(4-cyano-3-fluorophenyl)-5-(3-hydroxy-4-methoxyphenyl) )nicotinonitrile hydrochloride]: 1 ± 0.4 nM, 1.22 nM, 9330 nM and > 10000 nM.
For `COc1ccc(-c2c(-c3ccc(C#N)c(F)c3)nc(N3CCC(N)CC3)c3c2OCC(=O)N3)cc1O` [Example 280, 4-(5-(4-aminopiperidin-1-yl)-8-(3-hydroxy-4-methoxyphenyl)-3-oxo-3,4-dihydro-2H-pyridine[4,3-b][1,4]oxazin-7-yl)-2-fluorobenzonitrile hydrochloride], the IC50 in the series on NCI-H1417 cells (NCI-H1417, 168 h, read-out: NCI-H1417 proliferation inhibition IC50(nM)) was 2.7 ± 1 nM; on CYP3A4, > 10000 nM.
On to `O=C(NC1CCOCC1)c1cc(CN[C@@H]2C[C@H]2c2ccc(F)cc2)nc(-c2ccc(N3CCOCC3)cc2)n1` [Example 246, 6-(((1R,2S)-2-(4-fluorophenyl)cyclopropyl)amino)methyl)-2-(4-morpho-linophenyl)-N-(tetrahydro-2H-pyran-4-yl)pyrimidine-4-carboxamide hydrochloride], for which the IC50 at LSD1 stood at 18.1 nM. Further, the IC50 in the series on NCI-H1417 cells (setting [2]) was found to be 1.78 nM. In the series “Rat PK test (IV and PO)”, this molecule displayed a Cl of 39.6 mL/min/kg, an F of 9.54%, an AUC(0-inf) of 265 ng·h/mL and a Cmax of 56.2 ng/mL. In the series “Rat PK test (IV and PO)”, this molecule gave a half-life of 4.96 h and a Vd of 4.22 L/kg. In “Caco-2 permeability test”, the Papp A→B at 120 min came to 3.59 ×10⁻⁶ cm/s, the basolateral-to-apical permeability (Papp B→A) at 120 min turned out to be 3.36 ×10⁻⁶ cm/s and the efflux ratio at 120 min was determined as 0.96. In addition, the IC50 in series [1] was determined as 8550 nM.
Turning to `N#Cc1ccc(-c2nc(N3CCC(N)CC3)n3ccnc3c2-c2ccc(N3CCOCC3)cc2)cc1F` [Example 128, 4-(5-(4-aminopiperidin-1-yl)-8-(4-morpholinophenyl)imidazolo [1,2-c]pyrimidin-7-yl)-2-fluorobenzonitrile], the IC50 on LSD1 is 4.19 ± 0.11 nM; with NCI-H1417 cells (setting [2]), 6.46 nM; in series [1], 13700 nM; at CYP3A4 it was > 50000 nM.
Regarding `COc1ccc(-c2c(O)cc(N3CCC(N)CC3)nc2-c2ccc(C#N)c(F)c2)cc1F` [Example 11, 4-(6-(4-aminopiperidin-1-yl)-3-(3-fluoro-4-methoxyphenyl)-4-hydroxypyridin-2-yl)-2-fluoroben zonitrile formate], the IC50 on LSD1 is 2.9 ± 0.28 nM. In the series with NCI-H1417 cells (setting [2]), the IC50 is 13 nM. Also, in “Caco-2 permeability test”, the Papp A→B at 120 min is 3.66 ×10⁻⁶ cm/s, the basolateral-to-apical permeability (Papp B→A) at 120 min was found to be 27.2 ×10⁻⁶ cm/s and the efflux ratio at 120 min was determined as 7.42. Moreover, the IC50 in series [1] was > 30000 nM.
Consider `COc1ccc(-c2c(-c3ccc(C#N)c(F)c3)nc(N3CCC(N)CC3)n3ccnc23)cc1O` [Example 124, 4-(5-(4-aminopiperidin-1-yl)-8-3-hydroxy-4-(methoxyphenyl)imidazolo[1,2-c]pyrimidin-7-yl)-2-fluorobenzonitrile], for which the IC50 on LSD1 is 0.08 ± 0.03 nM; in the series with NCI-H1417 cells (setting [2]) it was 0.163 nM; in series [1], > 30000 nM. The Papp A→B at 120 min in the series “Caco-2 permeability test” is 1.73 ×10⁻⁶ cm/s. In the series “Caco-2 permeability test”, the Papp B→A at 120 min was determined as 24.7 ×10⁻⁶ cm/s. In addition, the efflux ratio at 120 min in “Caco-2 permeability test” turned out to be 14.3.
With `CNC1CCN(c2ncc(-c3ccc(OC)c(O)c3)c(-c3ccc(C#N)c(F)c3)c2C#N)CC1` [Example 79, 4-(4-cyano-3-fluorophenyl)-5-(3-hydroxy-4-methoxyphenyl)-2-(4-(methylamino)piperidin-1-yl) nicotinonitrile hydrochloride], the IC50 was 0.3 ± 0.1 nM at LSD1, 0.272 nM with NCI-H1417 cells (setting [2]), 4380 nM in series [1] and > 10000 nM on CYP3A4.
Consider `COc1ccc(-c2c(-c3ccc(C#N)c(F)c3)nc(N3CC4CC3CC4N)n3ccnc23)cc1O` (centres unmarked) [Example 164, 4-(5-(5-amino-2-azabicyclo[2.2. 1]heptan-2-yl)-8-(3-hydroxy-4-methoxyphenyl)imidazolo[1,2-c]pyrimidin-7-yl)-2-fluorobenzonitrile hydrochloride], for which the IC50 on LSD1 was 0.4 ± 0.2 nM; with NCI-H1417 cells (setting [2]), 0.22 nM; at CYP3A4, > 10000 nM.
Turning to `COc1ccc(-c2c(OC)cc(N3CCC(N)CC3)nc2-c2ccc(C#N)c(F)c2)cc1O` [Example 89, 4-(6-(4-aminopiperidin-1-yl)-3-(3-hydroxy-4-methoxyphenyl)-4-methoxypyridin-2-yl)-2-fluorobenzonitrile], the IC50 on LSD1 worked out at 0.46 ± 0.11 nM. In addition, the IC50 in the series on NCI-H1417 cells (setting [2]) amounted to 1 nM. In “Rat PK test (IV and PO)”, the Cl is 58.3 mL/min/kg, the F was 13.1%, the AUC(0-inf) amounted to 208 ng·h/mL and the Cmax was 22.5 ng/mL. Moreover, in “Rat PK test (IV and PO)”, the half-life was 6.26 h and the Vd was found to be 13 L/kg. Also, the IC50 in series [1] was determined as 13800 nM.
`N#Cc1ccc(-c2c(-c3ccc(C(F)(F)F)c(O)c3)cnc(N3CCC(N)CC3)c2C#N)cc1F` [Example 70, 2-(4-aminopiperidin-1-yl)-4-(4-cyano-3-fluorophenyl)-5-(3-hydroxy-4-(trifluoromethyl)phenyl) nicotinonitrile hydrochloride]: the IC50 at LSD1 amounted to 0.5 ± 0.3 nM; in the series on NCI-H1417 cells (setting [2]), 0.885 nM; on CYP3A4, 8710 nM.
Consider `COc1ccc(-c2c(O)cc(N3CCC(N)CC3)nc2-c2ccc(C#N)c(F)c2)cc1O` [Example 23, 4-(6-(4-aminopiperidin-1-yl)-4-hydroxy-3-(3-hydroxy-4-methoxyphenyl)pyridin-2-yl)-2-fluorobenzonitrile], for which the IC50 was 0.18 ± 0.08 nM on LSD1, 0.44 nM in the series with NCI-H1417 cells (setting [2]), > 30000 nM in series [1] and 54200 nM at CYP3A4.
Regarding `CS(=O)(=O)N1CCN(C(=O)c2cc(CN[C@@H]3C[C@H]3c3ccc(F)cc3)nc(-c3ccc(N4CCOCC4)cc3)n2)CC1` [Example 227], the IC50 amounted to 42.6 nM at LSD1, 3.91 nM in the series on NCI-H1417 cells (setting [2]), 6290 nM in series [1] and 14100 nM on CYP3A4.

Values taken from patent publication US20240216357A1 (SICHUAN HUIYU PHARMACEUTICAL CO., LTD., priority 2021, published 2024).
